Values quoted from earlier work, collected in US6372715B1, “Use of erythropoientin and iron preparations for producing pharmaceutical combination preparations for treating rheumatic diseases” (Roche Diagnostics GmbH, priority 1997, dated 2002).

Question: Which results are given for `[Fe]` [elementary iron]?
Answer: oral iron resorption (oral): about 1 mg per day; oral iron resorption under extreme loading (oral administration of about 300 mg Fe(III)/day): less than 3 mg per day
